Measurements from ChEMBL document CHEMBL2412969, “Antihyperglycemic and antihyperlipidemic activities of 2-(4-[(2-hydroxybenzyl) amino]-phenyl amino-methyl)-phenol in STZ induced diabetic rats” (Eur J Med Chem, 2013).
Calls of active or inactive are those of the source. No cut-off for these calls is given here.

Experiments:
Rattus norvegicus [1] = assay: Antihyperglycemic activity in Wistar albino rat streptozotocin-induced diabetic model assessed as reduction of blood glucose level at 30 mg/kg, po after 5 hrs (reference value: 372.2 +/- 16.6 mg/dl); type: functional
Rattus norvegicus [2] = assay: Antihyperglycemic activity in Wistar albino rat streptozotocin-induced diabetic model assessed as reduction of blood glucose level at 30 mg/kg, po after 1 hr (reference value: 389.16 +/- 19 mg/dl); type: functional
Rattus norvegicus [3] = assay: Antihyperglycemic activity in Wistar albino rat streptozotocin-induced diabetic model assessed as reduction of blood glucose level at 20 mg/kg, po after 6 hrs (reference value: 372.5 +/- 15.6 mg/dl); type: functional
Rattus norvegicus [4] = assay: Antihyperglycemic activity in Wistar albino rat streptozotocin-induced diabetic model assessed as reduction of blood glucose level at 20 mg/kg, po after 4 hrs (reference value: 373.5 +/- 15.6 mg/dl); type: functional
Rattus norvegicus [5] = assay: Antihyperglycemic activity in Wistar albino rat streptozotocin-induced diabetic model assessed as reduction of blood glucose level at 20 mg/kg, po after 3 hrs (reference value: 384.33 +/- 17.33 mg/dl); type: functional
Rattus norvegicus [6] = assay: Antihyperglycemic activity in Wistar albino rat streptozotocin-induced diabetic model assessed as reduction of blood glucose level at 20 mg/kg, po after 1 hr (reference value: 389.16 +/- 19 mg/dl); type: functional
Rattus norvegicus [7] = assay: Hypoglycemic activity in Wistar albino rat assessed as reduction of blood glucose level at 60 mg/kg, po after 6 hrs (reference value: 73.3 +/- 4.4 mg/dl); type: ADME, organism-based; parameters: dose 60 mg/kg, route oral; conditions: in vivo
Rattus norvegicus [8] = assay: Hypoglycemic activity in Wistar albino rat assessed as reduction of blood glucose level at 60 mg/kg, po after 5 hrs (reference value: 73.8 +/- 4.5 mg/dl); type: ADME, organism-based; parameters: dose 60 mg/kg, route oral; conditions: in vivo
Rattus norvegicus [9] = assay: Hypoglycemic activity in Wistar albino rat assessed as reduction of blood glucose level at 60 mg/kg, po after 3 hrs (reference value: 76.3 +/- 5.4 mg/dl); type: ADME, organism-based; parameters: dose 60 mg/kg, route oral; conditions: in vivo
Rattus norvegicus [10] = assay: Hypoglycemic activity in Wistar albino rat assessed as reduction of blood glucose level at 60 mg/kg, po after 2 hrs (reference value: 76.5 +/- 3.7 mg/dl); type: ADME, organism-based; parameters: dose 60 mg/kg, route oral; conditions: in vivo
Rattus norvegicus [11] = assay: Hypoglycemic activity in Wistar albino rat assessed as reduction of blood glucose level at 60 mg/kg, po after 1 hr (reference value: 71.26 +/- 4.3 mg/dl); type: ADME, organism-based; parameters: dose 60 mg/kg, route oral; conditions: in vivo
Rattus norvegicus [12] = assay: Hypoglycemic activity in Wistar albino rat assessed as reduction of blood glucose level at 30 mg/kg, po after 6 hrs (reference value: 73.3 +/- 4.4 mg/dl); type: ADME, organism-based; parameters: dose 30 mg/kg, route oral; conditions: in vivo
Rattus norvegicus [13] = assay: Hypoglycemic activity in Wistar albino rat assessed as reduction of blood glucose level at 30 mg/kg, po after 5 hrs (reference value: 73.8 +/- 4.5 mg/dl); type: ADME, organism-based; parameters: dose 30 mg/kg, route oral; conditions: in vivo
Rattus norvegicus [14] = assay: Hypoglycemic activity in Wistar albino rat assessed as reduction of blood glucose level at 30 mg/kg, po after 3 hrs (reference value: 76.3 +/- 5.4 mg/dl); type: ADME, organism-based; parameters: dose 30 mg/kg, route oral; conditions: in vivo
Rattus norvegicus [15] = assay: Hypoglycemic activity in Wistar albino rat assessed as reduction of blood glucose level at 30 mg/kg, po after 2 hrs (reference value: 76.5 +/- 3.7 mg/dl); type: ADME, organism-based; parameters: dose 30 mg/kg, route oral; conditions: in vivo
Rattus norvegicus [16] = assay: Hypoglycemic activity in Wistar albino rat assessed as reduction of blood glucose level at 30 mg/kg, po after 1 hr (reference value: 71.26 +/- 4.3 mg/dl); type: ADME, organism-based; parameters: dose 30 mg/kg, route oral; conditions: in vivo
Rattus norvegicus [17] = assay: Hypoglycemic activity in Wistar albino rat assessed as reduction of blood glucose level at 20 mg/kg, po after 6 hrs (reference value: 73.3 +/- 4.4 mg/dl); type: ADME, organism-based; parameters: dose 20 mg/kg, route oral; conditions: in vivo
Rattus norvegicus [18] = assay: Hypoglycemic activity in Wistar albino rat assessed as reduction of blood glucose level at 20 mg/kg, po after 1 hr (reference value: 71.26 +/- 4.3 mg/dl); type: ADME, organism-based; parameters: dose 20 mg/kg, route oral; conditions: in vivo
Rattus norvegicus [19] = assay: Hypoglycemic activity in Wistar albino rat assessed as reduction of blood glucose level at 20 mg/kg, po after 3 hrs (reference value: 76.3 +/- 5.4 mg/dl); type: ADME, organism-based; parameters: dose 20 mg/kg, route oral; conditions: in vivo
Rattus norvegicus [20] = assay: Hepatoprotective activity in Wistar albino rat assessed as protection against streptozotocin-induced increase in AST, ALT and ALP level in serum at 30 mg/kg, po qd for 30 days; type: functional, organism-based; parameters: dose 30 mg/kg
Rattus norvegicus [21] = assay: Renalprotective activity in Wistar albino rat assessed as protection against streptozotocin-induced increase in urea level in blood at 30 mg/kg, po qd for 30 days; type: functional
Rattus norvegicus [22] = assay: Renaltoxicity in Wistar albino rat assessed as creatinine level in blood at 30 mg/kg, po qd for 30 days; type: organism-based; parameters: dose 30 mg/kg, route oral; conditions: in vivo, 720 h
Rattus norvegicus [23] = assay: Renaltoxicity in Wistar albino rat assessed as urea level in blood at 30 mg/kg, po qd for 30 days; type: organism-based; parameters: dose 30 mg/kg, route oral; conditions: in vivo, 720 h
Rattus norvegicus [24] = assay: Antiatherosclerosis activity in Wistar albino rat streptozotocin-induced diabetic model assessed as protection from atherogenicity at 30 mg/kg, po qd for 30 days relative to control; type: functional
Rattus norvegicus [25] = assay: Antihyperlipidemic activity in Wistar albino rat streptozotocin-induced diabetic model assessed as increase of serum HDL-cholesterol level at 30 mg/kg, po qd for 30 days; type: functional, organism-based; parameters: dose 30 mg/kg
Rattus norvegicus [26] = assay: Antihyperlipidemic activity in Wistar albino rat streptozotocin-induced diabetic model assessed as reduction of serum LDL level at 30 mg/kg, po qd for 30 days; type: functional, organism-based; parameters: dose 30 mg/kg
Rattus norvegicus [27] = assay: Antihyperlipidemic activity in Wistar albino rat streptozotocin-induced diabetic model assessed as reduction of serum total cholesterol level at 30 mg/kg, po qd for 30 days; type: functional, organism-based; parameters: dose 30 mg/kg
Rattus norvegicus [28] = assay: Toxicity in Wistar albino rat assessed as increase of body weight at 30 mg/kg, po qd measured on day 30 (reference value: 8.82%); type: organism-based; parameters: dose 30 mg/kg, route oral; conditions: in vivo
Rattus norvegicus [29] = assay: Antihyperglycemic activity in Wistar albino rat streptozotocin-induced diabetic model assessed as reduction of fasting blood glucose level at 30 mg/kg, po qd measured on day 15 (reference value: 404.2 +/- 29.15 mg/dl); type: functional
Rattus norvegicus [30] = assay: Hypoglycemic activity in Wistar albino rat assessed as reduction of fasting blood glucose level at 30 mg/kg, po qd measured on day 15 (reference value: 82.66 +/- 6.05 mg/dl); type: ADME, organism-based; parameters: dose 30 mg/kg, route oral; conditions: in vivo
Rattus norvegicus [31] = assay: Antihyperglycemic activity in glucose loaded Wistar albino rat streptozotocin-induced diabetic model assessed as reduction of blood glucose level at 30 mg/kg, po after 1 hr by oral glucose tolerance test; type: functional, organism-based; parameters: dose 30 mg/kg
Rattus norvegicus [32] = assay: Antihyperglycemic activity in Wistar albino rat streptozotocin-induced diabetic model assessed as reduction of blood glucose level at 60 mg/kg, po after 6 hrs (reference value: 372.5 +/- 15.6 mg/dl); type: functional
Rattus norvegicus [33] = assay: Antihyperglycemic activity in Wistar albino rat streptozotocin-induced diabetic model assessed as reduction of blood glucose level at 60 mg/kg, po after 3 hrs (reference value: 384.33 +/- 17.33 mg/dl); type: functional
Rattus norvegicus [34] = assay: Antihyperglycemic activity in Wistar albino rat streptozotocin-induced diabetic model assessed as reduction of blood glucose level at 60 mg/kg, po after 2 hrs (reference value: 386.66 +/- 17.5 mg/dl); type: functional
Rattus norvegicus [35] = assay: Antihyperglycemic activity in Wistar albino rat streptozotocin-induced diabetic model assessed as reduction of blood glucose level at 30 mg/kg, po after 6 hrs (reference value: 372.5 +/- 15.6 mg/dl); type: functional

Activity (Rattus norvegicus [7]): 75 mg/dL
Activity (Rattus norvegicus [8]): 78 mg/dL
Activity (Rattus norvegicus [9]): 73.6 mg/dL
Activity (Rattus norvegicus [10]): 71.3 mg/dL
Activity (Rattus norvegicus [11]): 75.7 mg/dL
Activity (Rattus norvegicus [12]): 72.5 mg/dL
Activity (Rattus norvegicus [13]): 72.8 mg/dL
Activity (Rattus norvegicus [14]): 74.16 mg/dL
Activity (Rattus norvegicus [15]): 73.66 mg/dL
Activity (Rattus norvegicus [16]): 74.16 mg/dL
Activity (Rattus norvegicus [17]): 70 mg/dL
Activity (Rattus norvegicus [18]): 74.12 mg/dL
Activity (Rattus norvegicus [19]): 74.16 mg/dL
Activity (Rattus norvegicus [30]): 80.66 mg/dL
Compound: Oc1ccccc1CNc1ccc(NCc2ccccc2O)cc1
Activity (Rattus norvegicus [1]): 172.8 mg/dL
Activity (Rattus norvegicus [2]): 315.2 mg/dL
Activity (Rattus norvegicus [3]): 223.28 mg/dL
Activity (Rattus norvegicus [4]): 265.16 mg/dL
Activity (Rattus norvegicus [5]): 301.3 mg/dL
Activity (Rattus norvegicus [6]): 357.5 mg/dL
Activity (Rattus norvegicus [20]): Active
Activity (Rattus norvegicus [21]): 54.02 mg/dL
Activity (Rattus norvegicus [22]): 0.37 mg/dL
Activity (Rattus norvegicus [23]): 43.25 mg/dL
Activity (Rattus norvegicus [24]): 66.8%
Activity (Rattus norvegicus [25]): Active
Activity (Rattus norvegicus [26]): Active
Activity (Rattus norvegicus [27]): Active
Activity (Rattus norvegicus [28]): 2.94%
Activity (Rattus norvegicus [29]): 247.5 mg/dL
Activity (Rattus norvegicus [31]): Active
Activity (Rattus norvegicus [32]): 36.8 mg/dL
Activity (Rattus norvegicus [33]): 61.4 mg/dL
Activity (Rattus norvegicus [34]): 109.5 mg/dL
Activity (Rattus norvegicus [35]): 102 mg/dL
